Test [1] concerns HeLa. Briefly: Proliferation assay (HeLa cell line).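 Note: crystal violet staining of cell number, scaled between a plate stained before dosing (0%) and cells left untreated (100%), compounds tested at 0.001-10 µM, IC50 via 4-parameter fit.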 To be noted: Homo sapiens, 96 h, read-out: Biological Assay 2: Proliferation assay (HeLa cell line) median IC50.
For test [2], the system named is HeLa human cervical tumor cells. Briefly: Proliferation assay (HeLa+Paclitaxel).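 Note: compounds at 0.001-10 µM added 4 h after paclitaxel, 92 h exposure, absorbance normalized to zero-point plate (0%) and untreated cells (100%), IC50 from 4-parameter fit.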 To be noted: read-out: Biological Assay 3: HeLa + Paclitaxel IC50, 3 nM paclitaxel, crystal violet.
Experimental: Proliferation Assay (HeLa+Paclitaxel):
Cultivated HeLa human cervical tumor cells (DSMZ ACC-57) were plated at a density of 3000 cells/well in a 96-well multititer plate in 200 μL of growth medium supplemented 10% fetal calf serum. After 24 hours, the cells of one plate (zero-point plate) were stained with crystal violet (see below). The medium of the other plates was supplemented with 3 nM of paclitaxel (Sigma-Aldrich) and the cells were incubated at 37° C. After 4 hours the test substances were added in various concentrations (0 μM, as well as in the range of 0.001-10 μM; the final concentration of the solvent dimethyl sulfoxide was adjusted to 0.1%) using a Hewlett-Packard HP D300 Digital Dispenser. The cells were incubated for another 92 hours at 37° C. in the presence of test substances. Cell proliferation was determined by staining the cells with crystal violet: the cells were fixed by adding 20 μL/measuring point of an 11% glutaric aldehyde solution for 15 minutes at room temperature. After three washing cycles of the fixed cells with water, the plates were dried at room temperature. The cells were stained by adding 100 μL/measuring point of a 0.1% crystal violet solution (pH 3.0). After three washing cycles of the stained cells with water, the plates were dried at room temperature. The dye was dissolved by adding 100 μL/measuring point of a 10% acetic acid solution. […] The change of cell number, in percent, was calculated by normalization of the measured values to the absorbtion values of the zero-point plate (=0%) and the absorbtion of the untreated (0 μm) cells (=100%). The IC50 values were determined by means of a 4 parameter fit.
Test [3] concerns the target Bub1 (Homo sapiens, UniProt O43683). Briefly: Formation-Assay: phosphorylation status of histone 2A by inhibition of kinase activity of Bub1. The format is cell-based. To be noted: Biological Assay 4.1: H2A Formation IC50, co-treatment with Nocodazole 1 μg/ml, 16 h. Here is the method: Biological Assay 4.1: Formation-Assay
Cell-Based Mechanistic Assay: Changes of Phosphorylation Status of Histone 2A by Inhibition of Kinase Activity of Bub1
This assay determines the suppression of histone 2A phosphorylation by a Bub1 kinase inhibitor during co-treatment with Nocodazole. 25000 cells (cells were ordered from ATCC) were seeded in 96 well plate for 5 h at 37° C. Cells were treated with Nocodazole (1 μg/ml) and varying concentrations (between 3 nM and 10 μM) of test compounds for 16 h. Cells were fixed (20 min, Fixing solution R&D), washed three times with PBS and blocked with Odyssey blocking buffer before incubating with the primary antibody against phosphorylated H2A (5 μg/ml ABIN482721) overnight at 2-8° C. After washing, secondary IRDye-labeled antibody mix with cell stains was added for 1 h and washed again with PBS. Plates were scanned with LiCor Odyssey Infrared Imager CLx at 800 nm for P-H2A and at 700 nm for cell stains Draq5/Sapphire. The quotient of 800 nm and 700 nm for Nocodazole only treated cells was set as 100% and the quotient of 800 nm and 700 nm of untreated cells was set as 0%.
Histone H2A is an immediate intracellular substrate of Bub1 kinase. Determination of the phosphorylation status of Histone H2A provides a direct measure of the intracellular activity of Bub1 kinase.

Test [4] has as its target T1, catalytic domain of human Bub1 (amino acids 704-1085) (Homo sapiens, UniProt O43683).
T1 construct: catalytic domain of human Bub1 (amino acids 704-1085); His6 (N); made in house; host or cells: Hi5 insect cells
Briefly: Bub1 kinase assay (TR-FRET). The format is biochemical. The method, boiled down: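 TR-FRET read-out (Eu-anti-mouse IgG/anti-phosphoserine antibody to streptavidin-XL665 on biotinylated peptide) after EDTA stop and 1 h complex formation at 22° C. Kinase reaction ran 60 min at 22° C with 1:3.4 serial dilutions from 2 mM DMSO stocks. IC50 from 4-parameter logistic fit of normalized inhibition.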
(In general: Time-resolved FRET reads energy transfer from a long-lived donor to a nearby acceptor.)

[5] abbreviates: 10 μM ATP, read-out: Biological Assay 1: Bub1 kinase assay median IC50.
[6] abbreviates: Biological Assay 1: Bub1 kinase assay median IC50, 10 μM ATP.

Structures can show the parent of a compound that is named as a salt. Where two headings read alike, the source gives them in different places. Where only a bound is given, the exact number is not on record here.

Our source for the IC50 values is US20170275270A1, “BENZYL SUBSTITUTED INDAZOLES” (Bayer Pharma Aktiengesellschaft, priority 2014, published 2017).

T1 sequence (O43683 704-1085): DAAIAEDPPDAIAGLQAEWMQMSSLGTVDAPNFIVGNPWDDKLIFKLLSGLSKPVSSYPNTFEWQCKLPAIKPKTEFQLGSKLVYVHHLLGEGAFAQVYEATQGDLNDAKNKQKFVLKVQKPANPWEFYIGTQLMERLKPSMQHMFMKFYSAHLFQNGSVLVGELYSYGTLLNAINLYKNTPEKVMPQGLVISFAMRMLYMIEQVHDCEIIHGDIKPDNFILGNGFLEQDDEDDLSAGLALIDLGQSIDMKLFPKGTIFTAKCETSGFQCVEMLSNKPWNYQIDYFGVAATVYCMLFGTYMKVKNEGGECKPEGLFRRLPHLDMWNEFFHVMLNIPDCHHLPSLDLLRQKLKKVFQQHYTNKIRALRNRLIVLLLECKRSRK
Sequence of Bub1 (O43683 whole entry): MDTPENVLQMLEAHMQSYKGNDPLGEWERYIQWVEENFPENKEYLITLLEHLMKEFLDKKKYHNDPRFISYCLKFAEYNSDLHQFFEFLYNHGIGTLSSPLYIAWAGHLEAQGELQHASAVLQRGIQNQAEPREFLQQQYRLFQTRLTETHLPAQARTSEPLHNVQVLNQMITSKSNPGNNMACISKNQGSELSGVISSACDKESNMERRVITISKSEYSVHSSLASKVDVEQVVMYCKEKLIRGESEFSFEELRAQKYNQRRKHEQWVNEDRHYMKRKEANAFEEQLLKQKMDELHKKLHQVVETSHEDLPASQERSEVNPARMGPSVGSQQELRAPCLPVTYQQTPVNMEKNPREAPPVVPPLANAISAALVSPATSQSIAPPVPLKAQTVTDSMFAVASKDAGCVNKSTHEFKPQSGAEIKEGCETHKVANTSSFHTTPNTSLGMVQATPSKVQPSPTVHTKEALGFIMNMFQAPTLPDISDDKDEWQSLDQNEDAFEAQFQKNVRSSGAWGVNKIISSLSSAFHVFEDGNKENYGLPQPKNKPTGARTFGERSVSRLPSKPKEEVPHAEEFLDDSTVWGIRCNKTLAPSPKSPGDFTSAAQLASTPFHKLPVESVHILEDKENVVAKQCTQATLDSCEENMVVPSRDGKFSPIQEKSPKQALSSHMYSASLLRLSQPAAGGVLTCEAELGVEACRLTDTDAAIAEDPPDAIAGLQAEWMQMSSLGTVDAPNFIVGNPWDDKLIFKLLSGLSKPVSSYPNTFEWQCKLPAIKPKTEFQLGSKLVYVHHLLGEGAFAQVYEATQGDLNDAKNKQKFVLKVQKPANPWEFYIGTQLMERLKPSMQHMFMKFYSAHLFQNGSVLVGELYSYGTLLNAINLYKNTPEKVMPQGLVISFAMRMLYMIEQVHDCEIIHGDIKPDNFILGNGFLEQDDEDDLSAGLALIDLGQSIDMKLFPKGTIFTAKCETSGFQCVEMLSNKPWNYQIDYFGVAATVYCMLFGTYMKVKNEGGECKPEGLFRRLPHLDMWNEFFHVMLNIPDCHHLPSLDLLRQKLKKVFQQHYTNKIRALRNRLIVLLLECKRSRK

Turning to `OCCOc1cc(F)c(Cn2nc(-c3nc(CN4CCOCC4)cc(Nc4ccnnc4)n3)c3ccccc32)c(F)c1` [Example 2-6-37, 2-[3,5-difluoro-4-({3-[4-(morpholin-4-ylmethyl)-6-(pyridazin-4-ylamino)pyrimidin-2-yl]-1H-indazol-1-yl}methyl)phenoxy]ethanol], the IC50 in test [1] stood at 9500 nM; in test [2], 2300 nM; in test [3] it was 260 nM; in test [4] (setting [5]), 40 nM.
For the molecule `Cc1cc(Nc2nc(-c3nn(Cc4c(F)cc(OCCO)cc4F)c4ccccc34)nc3c2CCC3)ccn1` [Example 2-4-12, 2-{3,5-difluoro-4-[(3-{4-[(2-methylpyridin-4-yl)amino]-6,7-dihydro-5H-cyclopenta[d]pyrimidin-2-yl}-1H-indazol-1-yl)methyl]phenoxy}ethanol], the IC50 in test [1] stood at 1100 nM; in test [2], 3300 nM; in test [3] it was 2300 nM; in test [4] (setting [5]), 48 nM.
For the molecule `CCOc1cc(F)c(Cn2nc(-c3nc(CS(C)(=O)=O)cc(Nc4ccncc4)n3)c3ccccc32)c(F)c1` [Example 2-3-4, 2-[1-(4-ethoxy-2,6-difluorobenzyl)-1H-indazol-3-yl]-6-[(methylsulfonyl)methyl]-N-(pyridin-4-yl)pyrimidin-4-amine], the IC50 in test [1] was determined as 2100 nM; in test [2], 1000 nM; in test [3], 0.52 nM; in test [4] (setting [6]), 5.9 nM.
On to `CCOc1cc(F)c(Cn2nc(-c3nc4c(c(Nc5ccnc(C(F)F)c5)n3)CCC4)c3ccccc32)c(F)c1` [Example 2-19-8, N-[2-(difluoromethyl)pyridin-4-yl]-2-[1-(4-ethoxy-2,6-difluorobenzyl)-1H-indazol-3-yl]-6,7-dihydro-5H-cyclopenta[d]pyrimidin-4-amine], for which the IC50 in test [1] was greater than 10000 nM; in test [2] it was 440 nM; in test [3] it was 2500 nM; in test [4] (setting [5]), 8.1 nM.
The corresponding values for `CCOc1cc(F)c(Cn2nc(-c3ncc(CN)c(Nc4ccncc4)n3)c3ccccc32)c(F)c1` [Example 2-9-5, 5-(aminomethyl)-2-[1-(4-ethoxy-2,6-difluorobenzyl)-1H-indazol-3-yl]-N-(pyridin-4-yl)pyrimidin-4-amine, salt with hydrochloric acid] are 1800 nM, 340 nM, 1.8 nM and 14 nM.
In the case of `CCOc1cc(F)c(Cn2nc(-c3ncc(CC[S@@+](C)[O-])c(Nc4ccncc4)n3)c3ccccc32)c(F)c1` [Example 2-1-1, 2-[1-(4-ethoxy-2,6-difluorobenzyl)-1H-indazol-3-yl]-5-{2-[(R)-methylsulfinyl]ethyl}-N-(pyridin-4-yl)pyrimidin-4-amine], the IC50 in test [1] was 3600 nM; in test [2] it was 150 nM; in test [3], 1400 nM; in test [4] (setting [6]) it was 5 nM.
The corresponding values for `CCOc1cc(F)c(Cn2nc(-c3ncc(C4CCN(CC(F)(F)F)CC4)c(Nc4ccnc(C)n4)n3)c3ccccc32)c(F)c1` [Example 2-20-2, 2-[1-(4-ethoxy-2,6-difluorobenzyl)-1H-indazol-3-yl]-N-(2-methylpyrimidin-4-yl)-5-[1-(2,2,2-trifluoroethyl)piperidin-4-yl]pyrimidin-4-amine] are greater than 10000 nM, 260 nM, 9.1 nM and 51 nM.
The corresponding values for `CCOc1cc(F)c(Cn2nc(-c3nc(COC)cc(Nc4ccncc4)n3)c3ccccc32)c(F)c1` [Example 2-12-4, 2-[1-(4-ethoxy-2,6-difluorobenzyl)-1H-indazol-3-yl]-6-(methoxymethyl)-N-(pyridin-4-yl)pyrimidin-4-amine] are 1800 nM, 420 nM, 8.9 nM and 5.2 nM.
The corresponding values for `CCOc1cc(F)c(Cn2nc(-c3ncc(CCN4CCCC(F)(F)C4)c(Nc4ccncc4)n3)c3ccccc32)c(F)c1` [Example 2-2-16, 5-[2-(3,3-difluoropiperidin-1-yl)ethyl]-2-[1-(4-ethoxy-2,6-difluorobenzyl)-1H-indazol-3-yl]-N-(pyridin-4-yl)pyrimidin-4-amine] are 6900 nM, 230 nM, 1900 nM and 15 nM.
For the molecule `CCOc1cc(F)c(Cn2nc(-c3nc4c(c(Nc5ccnc(NC(C)=O)c5)n3)CC(C)(C)C4)c3ccccc32)c(F)c1` [Example 2-12-65, N-[4-({2-[1-(4-ethoxy-2,6-difluorobenzyl)-1H-indazol-3-yl]-6,6-dimethyl-6,7-dihydro-5H-cyclopenta[d]pyrimidin-4-yl}amino)pyridin-2-yl]acetamide], the IC50 in test [1] is greater than 10000 nM; in test [2], 110 nM; in test [3], 3.3 nM; in test [4] (setting [6]), 22 nM.
The matching figures for `CCOc1cc(F)c(Cn2nc(-c3ncc(CCCN4CCC(F)(F)CC4)c(Nc4ccncc4)n3)c3ccccc32)c(F)c1` [Example 2-2-18, 5-[3-(4,4-difluoropiperidin-1-yl)propyl]-2-[1-(4-ethoxy-2,6-difluorobenzyl)-1H-indazol-3-yl]-N-(pyridin-4-yl)pyrimidin-4-amine]: greater than 10000 nM, 400 nM, 8700 nM and 130 nM.
With `CCOc1cc(F)c(Cn2nc(-c3ncc(CC(C)(C)N)c(Nc4ccncc4)n3)c3ccccc32)c(F)c1` [Example 2-9-18, 5-(2-amino-2-methylpropyl)-2-[1-(4-ethoxy-2,6-difluorobenzyl)-1H-indazol-3-yl]-N-(pyridin-4-yl)pyrimidin-4-amine, salt with hydrochloric acid], the IC50 in test [1] was found to be 5500 nM; in test [2], 170 nM; in test [3], 6.7 nM; in test [4] (setting [5]) it was 15 nM.
With `CCOc1cc(F)c(Cn2nc(-c3nc4c(c(Nc5ccncc5)n3)CCNC4)c3ccccc32)c(F)c1` [Example 2-18-1, 2-[1-(4-ethoxy-2,6-difluorobenzyl)-1H-indazol-3-yl]-N-(pyridin-4-yl)-5,6,7,8-tetrahydropyrido[3,4-d]pyrimidin-4-amine], the IC50 in test [1] is 1700 nM; in test [2] it was 160 nM; in test [3], 20 nM; in test [4] (setting [6]) it was 6.1 nM.
The matching figures for `CCOc1cc(F)c(Cn2nc(-c3nc(Nc4ccncc4)cc(C(C)C)n3)c3ccccc32)c(F)c1` [Example 2-12-3, 2-[1-(4-ethoxy-2,6-difluorobenzyl)-1H-indazol-3-yl]-6-(propan-2-yl)-N-(pyridin-4-yl)pyrimidin-4-amine]: 4900 nM, 1400 nM, 34 nM and 17 nM.
`CCOc1cc(F)c(Cn2nc(-c3ncc(CC4CNC4)c(Nc4ccnc(C(F)(F)F)c4)n3)c3ccccc32)c(F)c1` [Example 2-9-8]: the IC50 in test [1] turned out to be 1800 nM; in test [2], 220 nM; in test [3], 14 nM; in test [4] (setting [5]), 440 nM.
For `CCOc1cc(F)c(Cn2nc(-c3nc(COC)cc(Nc4ccnc(C)c4)n3)c3ccccc32)c(F)c1` [Example 2-12-48, 2-[1-(4-ethoxy-2,6-difluorobenzyl)-1H-indazol-3-yl]-6-(methoxymethyl)-N-(2-methylpyridin-4-yl)pyrimidin-4-amine], the IC50 in test [1] came to 1200 nM; in test [2], 180 nM; in test [3] it was 1100 nM; in test [4] (setting [6]), 21 nM.
